From publication PMC5096949 (Toxicology letters, 2016) come the findings set out here.

Assay [1] has as its system PPARγ, C/EBPα and FABP4 mRNA expression. The assay is described as follows: RT-PCR of adipocyte marker genes in 3T3-L1 cells. The format is cell-based, Murine.
Assay [2] deals with T1, Mouse Brain Microsomes (FAAH) (Mus musculus, UniProt O08914).
T1 sequence (O08914 1-579): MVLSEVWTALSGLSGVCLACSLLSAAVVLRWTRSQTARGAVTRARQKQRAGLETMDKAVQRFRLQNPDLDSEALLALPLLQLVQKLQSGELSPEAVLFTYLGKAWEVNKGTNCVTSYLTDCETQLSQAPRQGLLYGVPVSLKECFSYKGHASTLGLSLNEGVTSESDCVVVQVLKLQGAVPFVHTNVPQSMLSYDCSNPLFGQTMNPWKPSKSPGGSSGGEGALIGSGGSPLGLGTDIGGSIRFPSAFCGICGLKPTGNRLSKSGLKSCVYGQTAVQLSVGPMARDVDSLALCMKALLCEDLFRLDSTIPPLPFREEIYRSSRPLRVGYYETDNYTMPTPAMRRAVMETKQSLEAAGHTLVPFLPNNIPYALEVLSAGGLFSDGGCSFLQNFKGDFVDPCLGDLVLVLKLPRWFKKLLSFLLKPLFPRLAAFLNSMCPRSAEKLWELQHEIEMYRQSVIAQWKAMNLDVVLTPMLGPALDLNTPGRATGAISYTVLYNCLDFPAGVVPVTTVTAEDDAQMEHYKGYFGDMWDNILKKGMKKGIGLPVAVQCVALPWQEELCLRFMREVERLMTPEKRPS
The assay is described as follows: FAAH inhibition in brain microsomes, OMP hydrolysis.

A word on the IC50: it is the concentration that inhibits the measured activity by half.

In the case of `O=C(OCc1ccccc1)c1ccc(O)cc1` [Benzylparaben, benzylparaben], in assay [1] (3T3-L1, 10 μM compound, co-treatment with AEA 10 μM, 7 days), the “effect on AEA-induced adipocyte marker expression” value was “not significantly changed”. The “PPARγ, C/EBPα and FABP4 mRNA expression” value in assay [1] (3T3-L1, 1, 10, 50 μM for 7 days, n = 3) was “enhanced PPARγ, C/EBPα and FABP4 mRNA expression”. The compound also came in with an IC50 in assay [2] of 0.21 µM.
